Reference: the supplement of paper PMC4862054

Key:
MDA-MB-436 [1] = test: normalised viability (% of control), CellTiter-Blue; higher = more viable cells (about 100 = DMSO control); details: incubation time: 72 h
Summary of the method: (§1)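 Each value is normalised viability at a single listed concentration of the series. Breast cancer cell lines in 384-well plates were incubated 72 h with compound and read by CellTiter-Blue fluorescence at 560/590 nm, with vehicle set to 100 and a positive kill control to 0 on every plate.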

HCC1599 [2] = test: as above; details: incubation time: 72 h
Summary of the method: as §1

MDA-MB-231 [3] = test: as above; details: incubation time: 72 h
Summary of the method: as §1

HCC1937 [4] = test: as above; details: incubation time: 72 h
Summary of the method: as §1

CAL-148 [5] = test: as above; details: incubation time: 72 h
Summary of the method: as §1

MFM-223 [6] = details: 72 h
Experimental: (§2)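 Drug sensitivity and resistance testing (DSRT) of breast cancer cell lines in 384-well plates, 5 concentrations in 10-fold dilutions over a compound-specific 10,000-fold range. After 72 h, cytotoxicity was read by CellTox Green fluorescence and viability by CellTiter-Glo luminescence (multiplexed), normalised to DMSO and benzethonium chloride controls. EC50 is the inflection point of the fitted dose-response curve (bottom asymptote free, so it can be relative for partial curves) and is censored at the highest tested concentration. Rows with DSS 0 (no meaningful response) were excluded.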

CAL-51 [7] = details: 72 h
Experimental: as §2

BT-549 [8] = details: 72 h
Experimental: as §2

BT-474 [9] = details: 72 h
Experimental: as §2

MDA-MB-231 [10] = details: 72 h
Experimental: as §2

HCC1143 [11] = details: 72 h
Experimental: as §2

CAL-85-1 [12] = details: 72 h
Experimental: as §2

CAL-148 [13] = details: 72 h
Experimental: as §2

Hs578T [14] = details: 72 h
Experimental: as §2

MDA-MB-468 [15] = details: 72 h
Experimental: as §2

MCF-10A [16] = details: 72 h
Experimental: as §2

MFM-223 [17] = details: 72 h; remark: listed apart in the source
Summary of the method: (§3)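 Breast cancer cell lines (20 µl suspension) were seeded into 384-well plates holding compound at 5 concentrations in 10-fold steps over a compound-specific 10,000-fold range, then incubated 72 h. Cell death was read first by CellTox Green fluorescence (485/520 nm), then viability by CellTiter-Glo luminescence after 10 min at room temperature. Each plate was normalised to 0.1 % DMSO and a positive kill control. EC50 was fitted from the dose-response curves and censored at the top concentration.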

CAL-51 [18] = details: 72 h; remark: listed apart in the source
Summary of the method: as §3

BT-549 [19] = details: 72 h; remark: listed apart in the source
Summary of the method: as §3

MDA-MB-436 [20] = details: 72 h
Summary of the method: as §3

MDA-MB-453 [21] = details: 72 h
Summary of the method: as §3

BT-474 [22] = details: 72 h; remark: listed apart in the source
Summary of the method: as §3

DU-4475 [23] = details: 72 h
Summary of the method: as §3

HCC1599 [24] = details: 72 h
Summary of the method: as §3

MDA-MB-231 [25] = details: 72 h; remark: listed apart in the source
Summary of the method: as §3

HCC1143 [26] = details: 72 h; remark: listed apart in the source
Summary of the method: as §3

SK-BR-3 = details: 72 h
Summary of the method: as §3

CAL-85-1 [27] = details: 72 h; remark: listed apart in the source
Summary of the method: as §3

HCC1937 [28] = details: 72 h
Summary of the method: as §3

CAL-148 [29] = details: 72 h; remark: listed apart in the source
Summary of the method: as §3

Hs578T [30] = details: 72 h; remark: listed apart in the source
Summary of the method: as §3

MCF-10A [31] = details: 72 h; remark: listed apart in the source
Summary of the method: as §3

HDQ-P1 [32] = details: 72 h
Summary of the method: as §3

MFM-223 [33] = details: 72 h; remark: listed apart in the source
Summary of the method: (§4)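 Viability of breast cancer cell lines was measured with CellTiter-Blue after 72 h of incubation on compound-loaded 384-well plates. Cells were seeded in 20 µl onto compound dissolved in 5 µl medium, and 2.5 µl reagent was added for 2 h at 37 °C before reading at 560/590 nm. EC50 was fitted from percent-inhibition dose-response data censored at the highest concentration, normalised per plate to vehicle and a positive kill control, with zero drug sensitivity score rows dropped.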

BT-474 [34] = details: 72 h; remark: listed apart in the source
Summary of the method: as §4

HCC1599 [35] = details: 72 h; remark: listed apart in the source
Summary of the method: as §4

MDA-MB-231 [36] = details: 72 h; remark: listed apart in the source
Summary of the method: as §4

HCC1143 [37] = details: 72 h; remark: listed apart in the source
Summary of the method: as §4

Hs578T [38] = details: 72 h; remark: listed apart in the source
Summary of the method: as §4

MDA-MB-468 [39] = details: 72 h; remark: listed apart in the source
Summary of the method: as §4

MDA-MB-453 [40] = details: 72 h; remark: listed apart in the source
Summary of the method: as §4

DU-4475 [41] = details: 72 h; remark: listed apart in the source
Summary of the method: as §4

CAL-85-1 [42] = details: 72 h; remark: listed apart in the source
Summary of the method: as §4

HDQ-P1 [43] = details: 72 h; remark: listed apart in the source
Summary of the method: as §4

Cc1c2oc3c(C)ccc(C(=O)N[C@@H]4C(=O)N[C@H](C(C)C)C(=O)N5CCC[C@H]5C(=O)N(C)CC(=O)N(C)[C@@H](C(C)C)C(=O)O[C@@H]4C)c3nc-2c(C(=O)N[C@@H]2C(=O)N[C@H](C(C)C)C(=O)N3CCC[C@H]3C(=O)N(C)CC(=O)N(C)[C@@H](C(C)C)C(=O)O[C@@H]2C)c(N)c1=O [Dactinomycin]
normalised viability [%]
Details | 0.3 nM | 1 nM | 3 nM | 10 nM | 100 nM | 1000 nM
CAL-148 [5] | 71.8 | – | 32.4 | 4.61 | – | –
HCC1599 [2] | – | 87.7 | – | – | 18.1 | 12.8
HCC1937 [4] | – | 65.8 | – | – | 21.8 | 18.4
MDA-MB-231 [3] | – | 53.3 | – | – | 7.55 | 5.39
MDA-MB-436 [1] | – | 48.8 | – | – | 13.1 | 9.7

Details | EC50, CellTiter-Blue viability [nM] | EC50, CellTiter-Glo [nM] | EC50, CellTox Green [nM]
BT-474 [9] | – | – | 354
BT-474 [22] | – | 12 | –
BT-474 [34] | 16.1 | – | –
BT-549 [8] | – | – | 5.04
BT-549 [19] | – | 1.94 | –
CAL-51 [7] | – | – | 2.1
CAL-51 [18] | – | 5.11 | –
CAL-85-1 [12] | – | – | 22.2
CAL-85-1 [27] | – | 9.71 | –
CAL-85-1 [42] | 2.03 | – | –
CAL-148 [13] | – | – | 1.44
CAL-148 [29] | – | 1.56 | –
DU-4475 [23] | – | 2.98 | –
DU-4475 [41] | 0.72 | – | –
HCC1143 [11] | – | – | 167
HCC1143 [26] | – | 8.69 | –
HCC1143 [37] | 1.52 | – | –
HCC1599 [24] | – | 35.9 | –
HCC1599 [35] | 8.18 | – | –
HCC1937 [28] | – | 4.61 | –
HDQ-P1 [32] | – | 2.14 | –
HDQ-P1 [43] | 1.67 | – | –
Hs578T [14] | – | – | 30.5
Hs578T [30] | – | 11.1 | –
Hs578T [38] | 0.99 | – | –
MCF-10A [16] | – | – | 27
MCF-10A [31] | – | 8.54 | –
MDA-MB-231 [10] | – | – | 2.54
MDA-MB-231 [25] | – | 12.7 | –
MDA-MB-231 [36] | 1.35 | – | –
MDA-MB-436 [20] | – | 7.89 | –
MDA-MB-453 [21] | – | 18.4 | –
MDA-MB-453 [40] | 1.9 | – | –
MDA-MB-468 [15] | – | – | 43.6
MDA-MB-468 [39] | 1.54 | – | –
MFM-223 [6] | – | – | 93.9
MFM-223 [17] | – | 35.9 | –
MFM-223 [33] | 14.8 | – | –
SK-BR-3 | – | 14.1 | –

COc1cccc2c1C(=O)c1c(O)c3c(c(O)c1C2=O)C[C@@](O)(C(=O)CO)C[C@@H]3O[C@H]1C[C@H](N)[C@H](O)[C@H](C)O1 [Doxorubicin]
normalised viability [%]
Details | 0.3 nM | 1 nM | 3 nM | 10 nM | 100 nM | 1000 nM
CAL-148 [5] | 86.5 | – | 93 | 73.6 | – | –
HCC1599 [2] | – | 93 | – | – | 74.8 | 59
HCC1937 [4] | – | 86.6 | – | – | 37 | 22.2
MDA-MB-231 [3] | – | 85.1 | – | – | 64.4 | 25.8
MDA-MB-436 [1] | – | 90.6 | – | – | 64.5 | 18.2

Details | EC50, CellTiter-Blue viability [nM] | EC50, CellTiter-Glo [nM] | EC50, CellTox Green [nM]
BT-474 [22] | – | 167 | –
BT-474 [34] | 522 | – | –
BT-549 [19] | – | 154 | –
CAL-51 [7] | – | – | 68
CAL-51 [18] | – | 41.5 | –
CAL-85-1 [12] | – | – | 440
CAL-85-1 [27] | – | 547 | –
CAL-85-1 [42] | 279 | – | –
CAL-148 [13] | – | – | 92.4
CAL-148 [29] | – | 187 | –
DU-4475 [23] | – | 177 | –
DU-4475 [41] | 71.8 | – | –
HCC1143 [26] | – | 942 | –
HCC1143 [37] | 132 | – | –
HCC1599 [24] | – | 597 | –
HCC1599 [35] | 83.5 | – | –
HDQ-P1 [32] | – | 465 | –
HDQ-P1 [43] | 259 | – | –
Hs578T [30] | – | 463 | –
Hs578T [38] | 147 | – | –
MCF-10A [31] | – | 856 | –
MDA-MB-231 [25] | – | 311 | –
MDA-MB-231 [36] | 187 | – | –
MDA-MB-436 [20] | – | 449 | –
MDA-MB-453 [21] | – | 607 | –
MDA-MB-453 [40] | 409 | – | –
MDA-MB-468 [15] | – | – | 100
MDA-MB-468 [39] | 150 | – | –
MFM-223 [33] | 558 | – | –
SK-BR-3 | – | 263 | –

Cc1ccc(F)c(NC(=O)Nc2ccc(-c3cccc4[nH]nc(N)c34)cc2)c1 [Linifanib]
normalised viability [%]
Details | 0.3 nM | 1 nM | 3 nM | 10 nM | 100 nM | 1000 nM
CAL-148 [5] | 93 | – | 96.3 | 94.4 | – | –
HCC1599 [2] | – | 109 | – | – | 108 | 109
HCC1937 [4] | – | 147 | – | – | 93.6 | 111
MDA-MB-231 [3] | – | 115 | – | – | 101 | 109
MDA-MB-436 [1] | – | 108 | – | – | 110 | 120

Details | EC50, CellTiter-Glo [nM]
CAL-51 [18] | 411

COc1cc(Nc2ncc3c(n2)-c2ccc(Cl)cc2C(c2c(F)cccc2OC)=NC3)ccc1C(=O)O [MLN8237]
normalised viability [%]
Details | 3 nM | 10 nM | 30 nM | 100 nM | 1000 nM | 10000 nM
CAL-148 [5] | 86.7 | – | 89.9 | 78.1 | – | –
HCC1599 [2] | – | 103 | – | – | 87.7 | 66.9
HCC1937 [4] | – | 68 | – | – | 40 | 42.2
MDA-MB-231 [3] | – | 101 | – | – | 58 | 33.3
MDA-MB-436 [1] | – | 133 | – | – | 54.7 | 70.8

Details | EC50, CellTiter-Blue viability [nM]
BT-474 [34] | 1160
CAL-85-1 [42] | 29.6
DU-4475 [41] | 57.5
HCC1143 [37] | 68.7
HCC1599 [35] | 2050
HDQ-P1 [43] | 51
Hs578T [38] | 41.8
MDA-MB-231 [36] | 502
MDA-MB-453 [40] | 11.1
MDA-MB-468 [39] | 76.2
MFM-223 [33] | 388
